Measured values reported in PMC11480411, “Mucosal sugars delineate pyrazine vs pyrazinone autoinducer signaling in Klebsiella oxytoca” (Nature Communications, 2024).
Where “and” joins values, the source holds several entries; their conditions need not be identical. Identical values can stand only once.

How the values were obtained:
Assay in all cases: PRESTO-Tango GPCR screen and dose-response
Format in all cases: cell-based
Details in all cases: replicate wells
HRH1 = molecular target: T1, HRH1 (Homo sapiens, UniProt P35367)
T1 construct: expressed in transfected cells; host or cells: HTLA cells (HEK293 line stably expressing β-arrestin-TEV and tTA-Luciferase)
Protocol: (§1) The PRESTO-Tango analyses were performed as previously published. Briefly, HTLA cells, a HEK293 cell line that stably expresses β-arrestin-TEV and tTA-Luciferase (a kind gift from Gilad Barnea, Brown University), were plated in 96-well tissue culture plates (Eppendorf) in DMEM containing 10% FBS and 1% Penicillin/Streptomycin. One day after plating (after reaching approximately 90% confluence), 200 ng per well GPCR-Tango plasmids[37] in 20 μL DMEM were individually mixed with 400 ng polyethylenimine (Polysciences) in an equal volume of DMEM and incubated for 20 min at room temperature before adding the transfection mixture to the HTLA cells. 16-24 h after transfection, medium was replaced with 180 μL fresh DMEM containing 1% Penicillin/Streptomycin and 10 mM HEPES and 20 μL of 3 or 3-Homo to reach a final concentration of 100 μM. Supernatants were aspirated 20 h after stimulation and 50 μl per well of Bright-Glo solution (Promega) diluted 20-fold with PBS containing 20 mM HEPES was added into each well. After 15 min incubation at room temperature, luminescence was quantified using a Spectramax i3x microplate reader (Molecular Devices). Activation fold for each sample was calculated by dividing relative luminescence units (RLU) for each condition by RLUs from PBS control. Dose response curves of each chemical were performed in a similar way with varying the ligand concentration from 10^−4 M to 10^−15 M.

HRH2 = molecular target: T2, HRH2 (Homo sapiens, UniProt P25021)
T2 construct: expressed in transfected cells; host or cells: HTLA cells (HEK293 line stably expressing β-arrestin-TEV and tTA-Luciferase)
Protocol: as §1

[1] = molecular target: T3, histamine receptor H4 (HRH4) (Homo sapiens, UniProt Q9H3N8)
T3 construct: expressed in transfected cells; host or cells: HTLA cells (HEK293 line stably expressing β-arrestin-TEV and tTA-Luciferase)
Protocol: as §1

T2 sequence (P25021 whole entry): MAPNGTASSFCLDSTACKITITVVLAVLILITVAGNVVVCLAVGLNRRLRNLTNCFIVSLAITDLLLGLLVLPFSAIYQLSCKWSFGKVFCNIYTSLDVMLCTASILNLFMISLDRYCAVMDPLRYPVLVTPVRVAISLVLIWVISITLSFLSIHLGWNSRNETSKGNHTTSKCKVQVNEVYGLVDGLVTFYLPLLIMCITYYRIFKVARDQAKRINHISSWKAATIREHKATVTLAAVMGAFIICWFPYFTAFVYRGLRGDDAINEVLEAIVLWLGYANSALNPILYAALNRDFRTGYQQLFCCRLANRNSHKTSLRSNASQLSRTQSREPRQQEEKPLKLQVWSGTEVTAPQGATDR
T3 sequence (Q9H3N8 whole entry): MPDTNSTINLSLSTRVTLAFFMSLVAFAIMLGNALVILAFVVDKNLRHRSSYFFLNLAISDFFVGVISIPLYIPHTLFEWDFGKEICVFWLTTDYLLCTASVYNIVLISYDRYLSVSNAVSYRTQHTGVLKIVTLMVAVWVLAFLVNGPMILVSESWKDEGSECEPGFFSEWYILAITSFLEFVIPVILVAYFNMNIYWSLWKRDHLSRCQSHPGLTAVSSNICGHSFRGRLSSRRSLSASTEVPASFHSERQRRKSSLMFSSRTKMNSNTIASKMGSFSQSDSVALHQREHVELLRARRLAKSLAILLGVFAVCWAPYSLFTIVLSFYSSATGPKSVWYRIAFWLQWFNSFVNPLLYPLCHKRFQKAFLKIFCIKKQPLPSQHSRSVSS
T1 sequence (P35367 whole entry): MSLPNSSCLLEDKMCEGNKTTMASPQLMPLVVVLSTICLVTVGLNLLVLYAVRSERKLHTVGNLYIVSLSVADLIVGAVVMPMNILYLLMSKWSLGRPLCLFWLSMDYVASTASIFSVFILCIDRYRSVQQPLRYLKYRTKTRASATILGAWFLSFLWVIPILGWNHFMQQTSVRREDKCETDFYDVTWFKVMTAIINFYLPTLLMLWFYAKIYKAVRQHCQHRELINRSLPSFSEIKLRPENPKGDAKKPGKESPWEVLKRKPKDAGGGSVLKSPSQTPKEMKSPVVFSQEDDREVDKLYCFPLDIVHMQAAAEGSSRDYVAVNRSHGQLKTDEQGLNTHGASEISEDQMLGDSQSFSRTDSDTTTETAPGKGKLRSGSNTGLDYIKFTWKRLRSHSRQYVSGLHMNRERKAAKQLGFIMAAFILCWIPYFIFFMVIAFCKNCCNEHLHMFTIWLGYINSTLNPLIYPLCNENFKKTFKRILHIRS

Compound: NCCc1c[nH]cn1 [Histamine, histamine, reference compound]
- HRH1 dose-response raw reporter signal (Fig. 5b source data) (HRH1; Log(10)Conc (M) -4): 81577 and 82137
- HRH1 dose-response raw reporter signal (Fig. 5b source data) (HRH1; Log(10)Conc (M) -5): 78216 and 78255
- HRH1 dose-response raw reporter signal (Fig. 5b source data) (HRH1; Log(10)Conc (M) -6): 75259 and 78673
- HRH1 dose-response raw reporter signal (Fig. 5b source data) (HRH1; Log(10)Conc (M) -7): 76949 and 75622
- HRH1 dose-response raw reporter signal (Fig. 5b source data) (HRH1; Log(10)Conc (M) -8): 67606 and 69585
- HRH1 dose-response raw reporter signal (Fig. 5b source data) (HRH1; Log(10)Conc (M) -9): 52047 and 52194
- HRH1 dose-response raw reporter signal (Fig. 5b source data) (HRH1; Log(10)Conc (M) -10): 45399 and 45284
- HRH1 dose-response raw reporter signal (Fig. 5b source data) (HRH1; Log(10)Conc (M) -11): 44193 and 43739
- HRH1 dose-response raw reporter signal (Fig. 5b source data) (HRH1; Log(10)Conc (M) -12): 45001 and 44441
- HRH1 dose-response raw reporter signal (Fig. 5b source data) (HRH1; Log(10)Conc (M) -13): 46307 and 47693
- HRH1 dose-response raw reporter signal (Fig. 5b source data) (HRH1; Log(10)Conc (M) -14): 46469 and 45317
- HRH1 dose-response raw reporter signal (Fig. 5b source data) (HRH1; Log(10)Conc (M) -15): 42643 and 42151
- HRH2 dose-response raw reporter signal (Fig. 5b source data) (HRH2; Log(10)Conc (M) -4): 3877 and 3933 and 3726
- HRH2 dose-response raw reporter signal (Fig. 5b source data) (HRH2; Log(10)Conc (M) -5): 699 and 758 and 693
- HRH2 dose-response raw reporter signal (Fig. 5b source data) (HRH2; Log(10)Conc (M) -6): 144 and 156 and 139
- HRH2 dose-response raw reporter signal (Fig. 5b source data) (HRH2; Log(10)Conc (M) -7): 56 and 88 (2×)
- HRH2 dose-response raw reporter signal (Fig. 5b source data) (HRH2; Log(10)Conc (M) -8): 94 and 91 and 50
- HRH2 dose-response raw reporter signal (Fig. 5b source data) (HRH2; Log(10)Conc (M) -9): 62 and 56 and 65
- HRH2 dose-response raw reporter signal (Fig. 5b source data) (HRH2; Log(10)Conc (M) -10): 59 and 68 and 77
- HRH2 dose-response raw reporter signal (Fig. 5b source data) (HRH2; Log(10)Conc (M) -11): 53 and 68 and 38
- HRH2 dose-response raw reporter signal (Fig. 5b source data) (HRH2; Log(10)Conc (M) -12): 50 and 56 and 88
- HRH2 dose-response raw reporter signal (Fig. 5b source data) (HRH2; Log(10)Conc (M) -13): 44 and 77 and 100
- HRH2 dose-response raw reporter signal (Fig. 5b source data) (HRH2; Log(10)Conc (M) -14): 44 and 83 and 77
- HRH2 dose-response raw reporter signal (Fig. 5b source data) (HRH2; Log(10)Conc (M) -15): 32 and 47 and 38
- HRH4 dose-response raw reporter signal (Fig. 5b source data) ([1]; Log(10)Conc (M) -5): 20161 and 21099
- HRH4 dose-response raw reporter signal (Fig. 5b source data) ([1]; Log(10)Conc (M) -6): 15058 and 15677
- HRH4 dose-response raw reporter signal (Fig. 5b source data) ([1]; Log(10)Conc (M) -7): 3788 and 3862
- HRH4 dose-response raw reporter signal (Fig. 5b source data) ([1]; Log(10)Conc (M) -8): 887 and 1023
- HRH4 dose-response raw reporter signal (Fig. 5b source data) ([1]; Log(10)Conc (M) -9): 590 and 625
- HRH4 dose-response raw reporter signal (Fig. 5b source data) ([1]; Log(10)Conc (M) -10): 537 and 513
- HRH4 dose-response raw reporter signal (Fig. 5b source data) ([1]; Log(10)Conc (M) -11): 475
- HRH4 dose-response raw reporter signal (Fig. 5b source data) ([1]; Log(10)Conc (M) -12): 433 and 407
- HRH4 dose-response raw reporter signal (Fig. 5b source data) ([1]; Log(10)Conc (M) -13): 377 and 419
- HRH4 dose-response raw reporter signal (Fig. 5b source data) ([1]; Log(10)Conc (M) -14): 545 and 448
- HRH4 dose-response raw reporter signal (Fig. 5b source data) ([1]; Log(10)Conc (M) -15): 245
